The values that follow come from publication PMC10096842, “Identification of Flavone Derivative Displaying a 4′-Aminophenoxy Moiety as Potential Selective Anticancer Agent in NSCLC Tumor Cells” (Molecules, 2023).

Series [1] has as its system HDF cells. Put plainly: Cell cycle analysis (PI, flow cytometry), HDF. The class given is cell-based, human. As to conditions: 1.5 and 3 µM, 24 h. On the procedure: Cell cycle analyses were performed by using a Guava easyCyte flow cytometer (Merk-Millipore, MA, USA) and the DNA content was determined by propidium iodide (PI) method as previously described. Briefly, A549, H1975, and HDF were treated with APF-1 at 1.5 and 3 µM concentrations for 24 h. Cells were harvested, washed twice with cold PBS, and fixed with 70% ice-cold ethanol and kept at […] for 2 h. The fixed cells were centrifugated at 4 °C and suspended in a master mix solution containing PBS, PI (40 µg/mL), and RNase (100 µg/mL) for 30 min at 37 °C in the dark. Samples were run through the Guava easyCyte flow cytometer set to internal cell cycle analysis protocol and 5000 cells per sample were measured. The percentage of cell cycle phases (G0/G1, S, and G2/M) was quantified using MultiCycle AV Cell Cycle in FCS Express 7 software (DeNovo Software, Pasadena, CA, USA). The experiment was performed three times in triplicate.

The subject of series [2] is human dermal fibroblasts (HDF). In words: MTT cell viability assay, HDF. As to conditions: Fibroblast, 72 h. It is filed as cell-based. On the procedure: The human non-small cell lung cancer (NSCLC) and Human Dermal Fibroblasts (HDF) cell lines were all obtained from the American Type Culture Collection (ATCC). The H1975 (CRL-5908™) cell line was grown in RPMI 1640 medium (ECB2000) while the A549 (CCL-185™) and HDF were grown in complete DMEM medium (ECM0095) All cultures were supplemented with 10% fetal bovine serum (FBS), 2 mM L-glutamine, 100 U/mL penicillin, and 100 µg/mL streptomycin,. All cell lines were routinely maintained in 75 cm^2 flasks in a cell incubator at 37 °C, 5% CO2, and 95% relative humidity. The cell cultures were detached by trypsinization with 0.5% trypsin in PBS containing 0.025% EDTA. All cell culture reagents were supplied by Euroclone (Milan, Italy).
The number of metabolically active cells, and thus cell viability, was assessed by a 3-(4,5-dimethylthiazol-2-yl)-2,5-diphenyltetrazolium bromide (MTT) assay as previously described. The NSCLC cell lines (A549 and H1975) and HDF were seeded in 96-well plates to reach 50% confluence at 24 h; then, the medium was removed and replaced with 0.2 mL of fresh culture medium containing increasing compound concentrations (0–160 µM). After 72 h, the medium from each well was removed and replaced with fresh medium supplemented with MTT at a final concentration of 200 µg/mL. After incubation for 4 h at 37 °C, 0.2 mL of DMSO was added to each well followed by multiwell shaking for 4 min. The absorbance was read on a multiwell scanning microplate reader (BioTek Synergy HT MicroPlate Reader Spectrophotometer, BioTek Instruments Inc., Winooski, VT, USA) at 570 nm using the extraction buffer as a blank. The optical density in the control group (untreated cells) was considered as 100% viability. The relative cell viability (%) was calculated as (OD570 of treated samples/OD570 of untreated samples) × 100. Dose-dependent curves were therefore generated for the cytotoxic studies. The 50% inhibiting concentration (IC50) was determined by non-linear regression analysis with a three-parameter fit by utilizing SigmaPlot 12.0 Software, USA, Systat Software, Inc. SigmaPlot for Windows. Each experiment was performed at least five times in triplicate.
(Tetrazolium dyes change colour on reduction, which living cells bring about.)

Series [3] is described as follows: Annexin V-FITC/PI apoptosis flow cytometry, HDF. It is filed as cell-based, human. As to conditions: human, HDF cells, HDF, 24 h, read-out: live/viable (Annexin V−PI−) cells. On the procedure:
(§1) Apoptosis was analyzed by flow cytometry using an Annexin V-FITC apoptosis detection kit (Biolegend, San Diego, CA, USA), according to the manufacturer’s instructions. A549, H1975, and HDF cells were treated with […] concentrations of APF-1 (1.5 and 3 µM). […] Briefly, control and treated cells were trypsinized, washed twice with ice-cold PBS, and resuspended in 1X Annexin binding buffer at a final concentration of 1.0 × 10^6 cell/mL. A total of 5 µL Annexin V-FITC and 10 µL Propidium Iodide (PI) were added to the cell suspension and the mixture was incubated for 15 min at rt in the dark. Samples were analyzed using the Guava EasyCyte flow cytometer (Merk-Millipore, Louis Missouri, USA). A total of 5000 events were acquired for each sample. Annexin V-FITC was detected as a green fluorescence (λex = 488 nm; λem = 516 nm) and PI was detected as a red fluorescence (λex = 535 nm; λem = 617 nm). Early apoptosis is defined by Annexin V+/PI− staining, late apoptosis is defined by Annexin V+/PI+ staining, and necrosis is defined by Annexin V−/PI+ staining.
Background: In flow cytometry, cells or beads pass a laser one at a time.

The subject of series [4] is HDF cells. In words: Annexin V-FITC/PI apoptosis flow cytometry, HDF. It is filed as cell-based, human. On the procedure:
as §1

In the case of `Nc1ccc(Oc2ccc3oc(-c4cccc(Oc5ccccc5)c4)cc(=O)c3c2)cc1` [APF-1], the “effect on cell cycle profile” value in the series with HDF cells [1] is “not affected”. Further, the IC50 in series [2] is 62 ± 6 µM. Moreover, the viability at 24 h, 1.5 µM in series [3] (1.5 µM) was 92%. In series [3] (3 µM), the viability at 24 h, 3 µM is 86%. In addition, the “effect on the number of late apoptotic cells” value in the series with HDF cells [4] (HDF, 1.5 and 3 µM, 24 h) is on record as “did not detect any effect”. Besides, the “increase in early apoptosis” value in the series with HDF cells [4] (HDF, highest APF-1 concentration (3 µM), 24 h) is listed as 4.7 fold. Besides, the “induction of apoptosis (sum of early and late apoptosis) compared with cancer cells” value with HDF cells [4] (fibroblasts, Figure 3D) was “lower”.

Usually IC50 stands for the concentration needed to halve the response being measured.
